Data set [1] has as its target T1, c-Met (cytoplasmic domain) (Homo sapiens, UniProt P08581).
T1 construct: Reactions were initiated with 30 ng/mL c-Met (cytoplasmic domain, Invitrogen Corporation #PV3143); purchased Invitrogen Corporation PV3143
The data set is described as follows: c-Met Kinase Assay (ELISA/TRF, PLC-γ substrate). The data set is classed as biochemical. The conditions noted are these: 3 μM ATP (Km level); read-out: c-Met Kinase Inhibition (IC50). In a few lines: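 Readout is TRF of europium anti-phosphotyrosine (PT66) bound to GST–PLC-γ substrate coated at 10 μg/mL, after a 15 min, 37 °C reaction started with 30 ng/mL c-Met cytoplasmic domain. Percent inhibition plotted against log compound concentration and fitted (variable slope) for IC50.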

Data set [2] concerns the target baculovirus-expressed ALK (Homo sapiens, UniProt Q9UM73). The experiment in a line: ALK Kinase Assay (ELISA/TRF, PLC-γ substrate). Also: 1 µM ATP (Km level). Type of data set: biochemical. As to conditions: read-out: ALK Kinase Inhibition (IC50). In a few lines: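 Read-out: TRF of europium-labeled anti-phosphotyrosine antibody bound to phosphorylated GST–PLC-γ coated at 10 μg/mL. Kinase step used 30 ng/ml ALK, 37° C, 15 minutes. IC50 values fitted by nonlinear sigmoidal dose-response (variable slope).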
A general note: An ELISA detects its analyte on a solid surface through an enzyme-linked reagent.

baculovirus-expressed ALK, sequence (Q9UM73 19-1620): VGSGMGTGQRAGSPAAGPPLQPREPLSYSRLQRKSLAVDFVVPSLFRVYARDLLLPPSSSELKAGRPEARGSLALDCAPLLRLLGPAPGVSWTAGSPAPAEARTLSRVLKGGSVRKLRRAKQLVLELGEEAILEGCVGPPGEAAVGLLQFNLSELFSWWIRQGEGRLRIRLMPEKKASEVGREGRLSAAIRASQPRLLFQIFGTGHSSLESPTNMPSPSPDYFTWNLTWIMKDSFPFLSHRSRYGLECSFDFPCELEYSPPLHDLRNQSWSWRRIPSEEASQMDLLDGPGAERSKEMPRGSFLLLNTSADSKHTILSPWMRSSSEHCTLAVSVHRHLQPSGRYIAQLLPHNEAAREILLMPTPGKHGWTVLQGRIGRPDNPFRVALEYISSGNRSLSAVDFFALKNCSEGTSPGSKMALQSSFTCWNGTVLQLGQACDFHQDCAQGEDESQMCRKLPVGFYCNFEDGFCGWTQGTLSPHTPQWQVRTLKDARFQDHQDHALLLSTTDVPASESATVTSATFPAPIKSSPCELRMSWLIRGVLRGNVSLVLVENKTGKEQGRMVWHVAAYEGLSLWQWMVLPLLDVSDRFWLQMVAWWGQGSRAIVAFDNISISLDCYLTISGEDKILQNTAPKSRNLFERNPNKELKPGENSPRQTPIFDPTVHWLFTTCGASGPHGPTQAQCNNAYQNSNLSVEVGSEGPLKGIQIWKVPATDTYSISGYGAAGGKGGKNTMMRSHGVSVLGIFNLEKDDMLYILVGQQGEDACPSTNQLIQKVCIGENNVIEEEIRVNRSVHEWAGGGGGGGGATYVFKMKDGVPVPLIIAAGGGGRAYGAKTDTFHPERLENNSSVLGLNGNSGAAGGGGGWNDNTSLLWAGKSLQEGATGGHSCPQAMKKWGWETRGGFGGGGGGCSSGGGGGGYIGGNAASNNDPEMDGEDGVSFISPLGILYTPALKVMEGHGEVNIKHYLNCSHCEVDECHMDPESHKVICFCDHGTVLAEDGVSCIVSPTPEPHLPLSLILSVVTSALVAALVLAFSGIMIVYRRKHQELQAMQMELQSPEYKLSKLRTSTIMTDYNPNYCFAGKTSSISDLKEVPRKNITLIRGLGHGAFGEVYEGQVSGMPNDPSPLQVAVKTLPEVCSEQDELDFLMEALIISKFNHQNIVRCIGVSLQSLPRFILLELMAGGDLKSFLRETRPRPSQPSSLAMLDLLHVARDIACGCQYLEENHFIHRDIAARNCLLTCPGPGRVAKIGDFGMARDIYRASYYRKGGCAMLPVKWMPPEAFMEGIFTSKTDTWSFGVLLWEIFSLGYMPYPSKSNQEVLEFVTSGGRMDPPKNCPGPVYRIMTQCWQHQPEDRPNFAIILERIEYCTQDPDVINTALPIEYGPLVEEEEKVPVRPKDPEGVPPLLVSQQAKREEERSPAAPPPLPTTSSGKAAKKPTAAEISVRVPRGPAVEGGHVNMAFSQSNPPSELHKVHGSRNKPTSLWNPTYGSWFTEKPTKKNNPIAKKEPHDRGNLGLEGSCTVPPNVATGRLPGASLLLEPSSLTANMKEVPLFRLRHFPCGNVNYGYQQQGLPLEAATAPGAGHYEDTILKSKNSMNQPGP
T1 sequence (P08581 956-1390 limits assumed): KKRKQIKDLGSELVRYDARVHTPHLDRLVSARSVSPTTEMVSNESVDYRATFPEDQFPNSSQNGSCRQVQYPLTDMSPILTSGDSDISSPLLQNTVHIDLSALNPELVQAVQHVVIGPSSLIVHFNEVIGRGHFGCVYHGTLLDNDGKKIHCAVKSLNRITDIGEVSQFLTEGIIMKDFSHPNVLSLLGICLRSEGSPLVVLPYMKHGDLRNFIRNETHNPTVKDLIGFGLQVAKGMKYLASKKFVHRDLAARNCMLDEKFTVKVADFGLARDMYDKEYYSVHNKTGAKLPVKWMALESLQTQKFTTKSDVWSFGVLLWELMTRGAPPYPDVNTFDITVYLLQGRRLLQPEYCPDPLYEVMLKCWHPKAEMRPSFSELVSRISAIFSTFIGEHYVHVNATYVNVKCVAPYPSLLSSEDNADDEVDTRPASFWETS

By IC50 is commonly meant the point on the concentration scale where inhibition reaches its midpoint. One may read the melting point as the temperature, or range, at which the solid turns liquid. `O=C1CNc2ncc(I)cc2N1Cc1ccccc1` [Example 8, 1-Benzyl-7-iodo-3,4-dihydro-1H-pyrido[2,3-b]pyrazin-2-one] registered a melting point of 225 °C. Moreover, the IC50 in data set [1] is above 100 µM. In addition, in data set [2], the IC50 was 10 to 100 µM.
The corresponding values for `Fc1ccc(F)c(CN2CCNc3ncc(-c4ccc(N5CCOCC5)nc4)cc32)c1` [Example 70, 1-(2,5-Difluorobenzyl)-7-(6-morpholin-4-yl-pyridin-3-yl)-1,2,3,4-tetrahydropyrido[2,3-b]pyrazine] are 206 to 207 °C, 10 to 100 µM and 0.1 to 1 µM.
Regarding `OC1CNc2ncc(I)cc2N1Cc1cc(F)ccc1C(F)(F)F` (stereo not drawn) [Example 134, 1-(5-Fluoro-2-trifluoromethylbenzyl)-7-iodo-1,2,3,4-tetrahydropyrido[2,3-b]pyrazin-2-ol], the melting point is 142 °C (dec.). Also, the IC50 in data set [1] lay within 10 to 100 µM. In addition, the IC50 in data set [2] was in the range of 10 to 100 µM.
`O=C(NCCN1CCCC1)c1ccc(-c2cnc3c(c2)N(Cc2c(Cl)cccc2Cl)C(=O)CN3)cc1` [Example 142, 4-[1-(2,6-Dichlorobenzyl)-2-oxo-1,2,3,4-tetrahydropyrido[2,3-b]pyrazin-7-yl]-N-(2-pyrrolidin-1-yl-ethyl)benzamide] showed a melting point above 200 °C. Also, the IC50 in data set [1] was 1 to 10 µM. Also, the IC50 in data set [2] is 0.1 to 1 µM.
The like results for `O=C1CNc2ncc(-c3cccnc3)cc2N1Cc1ccccc1` [Example 11, 1-Benzyl-7-pyridin-3-yl-3,4-dihydro-1H-pyrido[2,3-b]pyrazin-2-one] were, in that order, 58 °C, 10 to 100 µM and 10 to 100 µM.
`CN1CCN(C(=O)c2ccc(-c3cnc4c(c3)N(Cc3cc(F)c(F)cc3F)C(=O)CN4)cc2)CC1` [Example 85, 7-[4-(4-Methylpiperazine-1-carbonyl)phenyl]-1-(2,4,5-trifluorobenzyl)-3,4-dihydro-1H-pyrido[2,3-b]pyrazin-2-one] returned a melting point of 238 °C. Also, in data set [1], the IC50 is 10 to 100 µM. In data set [2], the IC50 is 10 to 100 µM.
Molecule `Fc1ccc(F)c(CN2CCNc3ncc(-c4cnc(N5CCOCC5)nc4)cc32)c1Cl` [Example 107, 1-(2-Chloro-3,6-difluorobenzyl)-7-(2-morpholin-4-yl-pyrimidin-5-yl)-1,2,3,4-tetrahydropyrido[2,3-b]pyrazine] had a melting point of 250 to 251 °C. In data set [1], the IC50 lay within 10 to 100 µM. The IC50 in data set [2] is below 0.1 µM.
For `NCC#Cc1cnc2c(c1)N(Cc1cc(Cl)ccc1Cl)CCN2` [Example 169, 3-[1-(2,5-Dichlorobenzyl)-1,2,3,4-tetrahydropyrido[2,3-b]pyrazin-7-yl]prop-2-ynylamine], the melting point was found to be 183 °C. Moreover, the half-inhibitory concentration (IC50) in data set [1] was 10 to 100 µM. Besides, the IC50 in data set [2] lay in the range of 0.1 to 1 µM.
Consider `O=C(O)c1ccc(-c2cnc3c(c2)N(Cc2ccccc2)CCN3)cc1` [Example 36, 4-(1-Benzyl-1,2,3,4-tetrahydropyrido[2,3-b]pyrazin-7-yl)benzoic acid], for which the melting point is above 300 °C. Also, in data set [1], the IC50 fell in the range of 1 to 10 µM. Besides, in data set [2], the IC50 lay within 0.1 to 1 µM.
Molecule `CCOC(=O)c1ccc(-c2cnc3c(c2)N(Cc2cc(F)ccc2F)C(=O)CN3)cc1` [Example 55, 4-[1-(2,5-Difluorobenzyl)-2-oxo-1,2,3,4-tetrahydropyrido[2,3-b]pyrazin-7-yl]benzoic acid ethyl ester] registered a melting point of 201 to 203 °C. The IC50 in data set [1] is above 100 µM. For the same molecule, in data set [2], the IC50 was 10 to 100 µM.
`N#Cc1cnc2c(c1)N(Cc1cc(Cl)ccc1Cl)CCN2` [Example 127, 1-(2,5-Dichlorobenzyl)-1,2,3,4-tetrahydropyrido[2,3-b]pyrazine-7-carbonitrile] came in with a melting point of 221 to 222 °C. The IC50 in data set [1] is above 100 µM. In addition, the IC50 in data set [2] fell in the range of 1 to 10 µM.
Consider `COC(=O)c1cccc(-c2cnc3c(c2)N(Cc2ccccc2)C(=O)CN3)c1` [Example 30, 3-(1-Benzyl-2-oxo-1,2,3,4-tetrahydropyrido[2,3-b]pyrazin-7-yl)benzoic acid methyl ester], for which the melting point was determined as 211 °C. In addition, the IC50 in data set [1] lay within 10 to 100 µM. In data set [2], the half-inhibitory concentration (IC50) fell in the range of 1 to 10 µM.
Consider `CC(=O)c1ccc(-c2cnc3c(c2)N(Cc2ccccc2)C(=O)CN3)cc1` [Example 21, 7-(4-Acetylphenyl)-1-benzyl-3,4-dihydro-1H-pyrido[2,3-b]pyrazin-2-one], for which the melting point was found to be 200 °C. For the same molecule, in data set [1], the IC50 is above 100 µM. Besides, the IC50 in data set [2] was 10 to 100 µM.
`O=C(O)c1ccc(-c2cnc3c(c2)N(Cc2ccccc2)C(=O)CN3)cc1` [Example 10, 4-(1-Benzyl-2-oxo-1,2,3,4-tetrahydropyrido[2,3-b]pyrazin-7-yl)benzoic acid] showed a melting point above 200 °C. Besides, the IC50 in data set [1] was above 100 µM. The IC50 in data set [2] is 10 to 100 µM.
As for `CN(C)CCCCCCNC(=O)c1ccc(-c2cnc3c(c2)N(Cc2ccccc2)C(=O)CN3)cc1` [Example 16, 4-(1-benzyl-2-oxo-1,2,3,4-tetrahydropyrido[2,3-b]pyrazin-7-yl)-N-(6-dimethylaminohexyl)benzamide], the melting point was above 200 °C. The IC50 in data set [1] lay within 10 to 100 µM. Moreover, the IC50 in data set [2] is 1 to 10 µM.
On to `Fc1ccc(F)c(CN2CCNc3ncc(I)cc32)c1Cl` [Example 98, 1-(2-Chloro-3,6-difluorobenzyl)-7-iodo-1,2,3,4-tetrahydropyrido[2,3-b]pyrazine], for which the melting point lay within 156 to 157 °C. In addition, the IC50 in data set [1] was above 100 µM. In data set [2], the IC50 was in the range of 1 to 10 µM.
The like results for `O=C(c1ccccc1)N1CCNc2ncccc21` [Example 41, (3,4-Dihydro-2H-pyrido[2,3-b]pyrazin-1-yl)phenylmethanone] were, in that order, 166 to 168 °C, above 100 µM and above 100 µM.
Consider `CCOC(=O)c1cccc(-c2cnc3c(c2)N(Cc2cc(Cl)ccc2C(F)(F)F)CCN3)c1` [Example 194, 3-{1-[5-Chloro-2-(trifluoromethyl)benzyl]-1,2,3,4-tetrahydropyrido[2,3-b]pyrazin-7-yl}benzoic acid ethyl ester], for which the melting point amounted to 174 °C. Besides, the IC50 in data set [1] was above 100 µM. The IC50 in data set [2] is 0.1 to 1 µM.
`Clc1cccc(Cl)c1CN1CCNc2ncc(I)cc21` [Example 162, 1-(2,6-Dichlorobenzyl)-7-iodo-1,2,3,4-tetrahydropyrido[2,3-b]pyrazine] registered a melting point above 200 °C. The IC50 in data set [1] was in the range of 10 to 100 µM. In data set [2], the IC50 lay in the range of 1 to 10 µM.
With `O=C(O)c1ccc(-c2cnc3c(c2)N(Cc2c(Cl)cccc2Cl)C(=O)CN3)cc1` [Example 140, 4-[1-(2,6-Dichlorobenzyl)-2-oxo-1,2,3,4-tetrahydropyrido[2,3-b]pyrazin-7-yl]benzoic acid], the melting point was above 200 °C. Besides, the IC50 in data set [1] is 1 to 10 µM. For the same molecule, the IC50 in data set [2] is 1 to 10 µM.
`O=C(c1ccccc1)N1CCNc2ncc(I)cc21` [Example 42, (7-Iodo-3,4-dihydro-2H-pyrido[2,3-b]pyrazin-1-yl)phenylmethanone] had a melting point of 164 to 166 °C. Moreover, the IC50 in data set [1] was above 100 µM. In data set [2], the IC50 was above 100 µM.

The record behind these values is patent publication US7601716B2, “Pyridopyrazines and derivatives thereof as ALK and c-Met inhibitors” (Cephalon, Inc., priority 2006, dated 2009).
